Like-named read-outs stand apart in the source and are kept apart here. Numbered stars: 1 amine (or outer) side, 2 acyl side, 3 side chain; on linkers, the order of the positions; unused ones are H or OH. Bridge positions count the residues as written; N and C are the ends. Square brackets hold non-standard residues; d marks the D form. Peptide text beside a SMILES is read from it. * marks the point of attachment. X1 = C[C@@H](O)[C@@H](CS[*:1])N[*:2]; dGly(nOct) = CCCCCCCC[C@@H](N)C(=O)O; Hica(2S) = CC(C)C[C@H](O)C(=O)O; Octanoyl = CCCCCCCC(=O)*; Dab = NCC[C@H](N)C(=O)O
Legend:
K. pneumoniae MB674 [1] = type: cell-based; conditions: MB674
Experimental: (§1) The antibacterial activity of the polymyxin lipopeptides was measured at ISGlobal following the microdilution test to determine the Minimal Inhibitory Concentrations (MIC) in sterile 96-well polypropilene plates. The concentration range was 32 a […] in Iso-Sensitest broth (Oxoid, ThermoFisher). The results were carried out in triplicate and the highest MIC is the one shown. Bacterial strains were grown in blood agar plates at 37° C. for 17 h. Fresh colonies were used to prepare a McFarland 0.5 solution that was finally added to the plates at 1 to 100 dilution
(§2) Samples of sensitive and multi-drug resistant bacteria were: E. coli ATCC 25922 E. coli MB1410; K. pneumoniae MB674; P. aeruginosa ATCC 27853; P. aeruginosa 36A.

Swiss CD-1 female mice = assay: Nephrotoxicity study, histopathological scoring of kidney lesions; type: in vivo; design: key to Group Score (GS): mean of per-animal summed 0-4 lesion scores; higher = more nephrotoxic; key to Animal Score (AS), Partial AS: sum of 0-4 lesion parameter scores; higher = more nephrotoxic; conditions: for Animal Score (AS), Partial AS: sum over all mice; for nephrotoxicity in mice, in words: nephrotoxicity tests carried out in mice, statement of the background
Experimental: Swiss CD-1 female mice weighing approximately 20-24 g (JANVIER Labs) were used, housed in an individually ventilated cage system under specific pathogen-free conditions, and water and food supplied ad libitum. This study plan and the conduct of the study were subjected to review by the Scientific Park of Barcelona Ethical Review Process with the current study procedure Code CEEA (AR) 9377-P2. Mice were administered at a dose of 12 mg/Kg every 2 hours for a total of 6 administrations (total dose 72 mg/Kg), unless otherwise stated. After 20 h, animals were anesthesized with isoflurane, kidneys extracted and prepared for histopathological evaluation, and finally animales were sacrificed. Kidney lesions (tubule dilation, necrosis, tubule casts, cell vacuolization, cell desquamation, and cell swelling) were quantified by microscopical observation (see for instance, Roberts, ACS Infect. Dis., 2015, 1, 568). Each one of these parameters was scored with values from 0 to 4 for each animal, as a global result of observations in kidney. Partial scores have been added up to obtain a final score for each animal (Animal Score, AS). The mean of animal score has been obtained to define the Group Score (GS). The higher the score, the more nephrotoxic a compound is. The nephrotoxicity score has been determined as according to the following table of approximated values: […]

P. aeruginosa 36A [2] = assay: microbe, parasite or virus in culture; type: cell-based; conditions: 36A
Experimental: as §1, §2

E. coli ATCC 25922 [3] = assay: microbe, parasite or virus in culture; type: cell-based; conditions: ATCC 25922
Experimental: as §1, §2

E. coli MB1410 [4] = assay: microbe, parasite or virus in culture; type: cell-based; conditions: MB1410
Experimental: as §1, §2

P. aeruginosa ATCC 27853 [5] = assay: microbe, parasite or virus in culture; type: cell-based; conditions: ATCC 27853
Experimental: as §1, §2

E. coli MB1410 [6] = conditions: comparative examples, extracted from Scientific Reports 5:10558 or WO2017093210A1; cited from earlier work
P. aeruginosa ATCC 27853 [7] = conditions: comparative examples, extracted from Scientific Reports 5:10558 or WO2017093210A1; cited from earlier work
P. aeruginosa 36A [8] = conditions: comparative examples, extracted from Scientific Reports 5:10558 or WO2017093210A1; cited from earlier work
E. coli ATCC 25922 [9] = conditions: comparative examples, extracted from Scientific Reports 5:10558 or WO2017093210A1; cited from earlier work
K. pneumoniae MB674 [10] = conditions: comparative examples, extracted from Scientific Reports 5:10558 or WO2017093210A1; cited from earlier work
[11] = Table 6, 12 mg/Kg every 2 hours × 6, subcutaneous, total 72 mg/Kg
[12] = Table 6, mean of animal scores, 12 mg/Kg every 2 hours × 6, subcutaneous, total 72 mg/Kg
[13] = Table 6, sum of mouse scores, 12 mg/Kg every 2 hours × 6, subcutaneous, total 72 mg/Kg
[14] = Table 7, 8 mg/Kg every 2 hours × 6, total 48 mg/Kg
[15] = Table 8, 12 mg/Kg every 2 hours × 6 sc, total 72 mg/Kg, 3 mice

| Molecule | antibacterial activity (MIC) (K. pneumoniae MB674 [1]) | Mice found dead (Swiss CD-1 female mice; [11]) | Group Score (GS) (Swiss CD-1 female mice; [12]) | Cell desquamation, Partial AS (Swiss CD-1 female mice; [13]) | Cell vacuolization, Partial AS (Swiss CD-1 female mice; [13]) | Cloudy swelling, Partial AS (Swiss CD-1 female mice; [13]) | Tubular casts, Partial AS (Swiss CD-1 female mice; [13]) | Tubular dilation, Partial AS (Swiss CD-1 female mice; [13]) | Tubular necrosis, Partial AS (Swiss CD-1 female mice; [13]) | Animal Score (AS), Partial AS (Swiss CD-1 female mice; [11]) | antibacterial activity (MIC) (P. aeruginosa 36A [2]) | antibacterial activity (MIC) (E. coli ATCC 25922 [3]) | antibacterial activity (MIC) (E. coli MB1410 [4]) | antibacterial activity (MIC) (P. aeruginosa ATCC 27853 [5]) | antibacterial activity (MIC) (E. coli MB1410 [6]) | antibacterial activity (MIC) (P. aeruginosa ATCC 27853 [7]) | antibacterial activity (MIC) (P. aeruginosa 36A [8]) | Group Score (GS) (Swiss CD-1 female mice; [15]) | Mice found dead (Swiss CD-1 female mice; [15]) | nephrotoxicity in mice, in words (Swiss CD-1 female mice) | other results |
| --- | --- | --- | --- | --- | --- | --- | --- | --- | --- | --- | --- | --- | --- | --- | --- | --- | --- | --- | --- | --- | --- |
| CCCCCCCC[C@@H](N)C(=O)N[C@H](C(=O)N[C@@H](CCN)C(=O)N[C@H]1CSSC[C@H]([C@@H](C)O)NC(=O)[C@H](CCN)NC(=O)[C@H](CCN)NC(=O)[C@H](CC(C)C)NC(=O)[C@@H](Cc2ccccc2)NC(=O)[C@H](CCN)NC1=O)[C@@H](C)O [Example 5, DAdec-Thr-Dab-cyclo(S-S)[Cys-Dab-DPhe-Leu-Dab-Dab-Ttr]] (H-[dGly(nOct)]T[Dab]C[Dab][dF]L[Dab][Dab]; linker 4-C via X1; N-terminus assumed) | 1 µg/mL | None | 0.4 | 0 | 0 | 3 | 0 | 0 | 0 | 3 | 2 µg/mL | 1 µg/mL | 1 µg/mL | 2 µg/mL |  |  |  |  |  |  | AS, Partial AS (Swiss CD-1 female mice; [14]): 0; Cell vacuolization, Partial AS (Swiss CD-1 female mice; [14]): 0; Cloudy swelling, Partial AS (Swiss CD-1 female mice; [14]): 0; Group Score (GS) (Swiss CD-1 female mice; [14]): 0; Mice found dead (Swiss CD-1 female mice; [14]): None; Tubular casts, Partial AS (Swiss CD-1 female mice; [14]): 0; Tubular dilation, Partial AS (Swiss CD-1 female mice; [14]): 0; Tubular necrosis, Partial AS (Swiss CD-1 female mice; [14]): 0 |
| CCCCCCCC[C@@H](N)C(=O)N[C@H](C(=O)N[C@@H](CCN)C(=O)N[C@H]1CSSC[C@H]([C@@H](C)O)NC(=O)[C@H](CCN)NC(=O)[C@H](CCN)NC(=O)[C@H](CC(C)C)NC(=O)[C@@H](CC(C)C)NC(=O)[C@H](CCN)NC1=O)[C@@H](C)O [Example 6, DAdec-Thr-Dab-cyclo(S-S)[Cys-Dab-DLeu-Leu-Dab-Dab-Ttr]] (H-[dGly(nOct)]T[Dab]C[Dab][dL]L[Dab][Dab]; linker 4-C via X1; N-terminus assumed) | 0.5 µg/mL | 2 | 1 | 0 | 0 | 5 | 1 | 0 | 0 | 6 | 0.5 µg/mL | 2 µg/mL | 0.5 µg/mL | 1 µg/mL |  |  |  |  |  |  | AS, Partial AS (Swiss CD-1 female mice; [14]): 1; Cell vacuolization, Partial AS (Swiss CD-1 female mice; [14]): 0; Cloudy swelling, Partial AS (Swiss CD-1 female mice; [14]): 1; Group Score (GS) (Swiss CD-1 female mice; [14]): 0.2; Mice found dead (Swiss CD-1 female mice; [14]): None; Tubular casts, Partial AS (Swiss CD-1 female mice; [14]): 0; Tubular dilation, Partial AS (Swiss CD-1 female mice; [14]): 0; Tubular necrosis, Partial AS (Swiss CD-1 female mice; [14]): 0 |
| CCCCCCCC[C@@H](N)C(=O)N[C@H](C(=O)N[C@@H](CCN)C(=O)N[C@H]1CSSC[C@H]([C@@H](C)O)NC(=O)[C@H](CCN)NC(=O)[C@H](CCN)NC(=O)[C@H](CC(C)C)OC(=O)[C@@H](CC(C)C)NC(=O)[C@H](CCN)NC1=O)[C@@H](C)O [Example 8, DAdec-Thr-Dab-cyclo(S-S)[Cys-Dab-DLeu-OLe-Dab-Dab-Ttr]] (H-[dGly(nOct)]T[Dab]C[Dab][dL][Hica(2S)][Dab][Dab]; linker 4-C via X1) | 1 µg/mL | None | 0 | 0 | 0 | 0 | 0 | 0 | 0 | 0 | 1 µg/mL | 2 µg/mL | 1 µg/mL | 2 µg/mL |  |  |  |  |  |  |  |
| CCCCCCCC(=O)N[C@@H](CCN)C(=O)N[C@H](C(=O)N[C@@H](CCN)C(=O)N[C@H]1CSSC[C@H]([C@@H](C)O)NC(=O)[C@H](CCN)NC(=O)[C@H](CCN)NC(=O)[C@H](CC(C)C)OC(=O)[C@@H](Cc2ccccc2)NC(=O)[C@H](CCN)NC1=O)[C@@H](C)O [Example 9, Octanoyl-Dab-Thr-Dab-cyclo(S-S)[Cys-Dab-DPhe-OLe-Dab-Dab-Ttr]] (Octanoyl-[Dab]T[Dab]C[Dab][dF][Hica(2S)][Dab][Dab]; linker 4-C via X1) | 1 µg/mL | 1 | 0 | 0 | 0 | 0 | 0 | 0 | 0 | 0 | 2 µg/mL | 4 µg/mL | 1 µg/mL | 2 µg/mL |  |  |  |  |  |  |  |
| CCCCCCCC[C@@H](N)C(=O)N[C@H](C(=O)N[C@@H](CCN)C(=O)N[C@H]1CSSC[C@H]([C@@H](C)O)NC(=O)[C@H](CCN)NC(=O)[C@H](CCN)NC(=O)[C@H](CC(C)C)OC(=O)[C@@H](Cc2ccccc2)NC(=O)[C@H](CCN)NC1=O)[C@@H](C)O [Example 10, DAdec-Thr-Dab-cyclo(S-S)[Cys-Dab-DPhe-Ole-Dab-Dab-Ttr]] (H-[dGly(nOct)]T[Dab]C[Dab][dF][Hica(2S)][Dab][Dab]; linker 4-C via X1) | 2 µg/mL | None | 0 | 0 | 0 | 0 | 0 | 0 | 0 | 0 | 2 µg/mL | 2 µg/mL | 1 µg/mL | 2 µg/mL |  |  |  |  |  |  |  |
| DAoc-Thr-Dab-cyclo(S-S)[Cys-Dab-DAoc-Leu-Dab-Dab-DCys] [compound 4] |  |  |  |  |  |  |  |  |  |  |  |  |  |  | 4 µg/mL | 2 µg/mL | 2 µg/mL | All mice dead | 3 | showed nephrotoxicity | antibacterial activity (MIC) (E. coli ATCC 25922 [9]): 4 µg/mL; antibacterial activity (MIC) (K. pneumoniae MB674 [10]): 2 µg/mL |
| DAoc-Thr-Dab-cyclo(S-S)[Cys-Dab-DNIe-Leu-Dab-Dab-DCys] [compound 5] |  |  |  |  |  |  |  |  |  |  |  |  |  |  | 8 µg/mL | 4 µg/mL | 2 µg/mL | 4.3 | none | showed nephrotoxicity | AS, Partial AS (Swiss CD-1 female mice; [15]): 13; Cell vacuolization, Partial AS (Swiss CD-1 female mice; [15]): 0; Cloudy swelling, Partial AS (Swiss CD-1 female mice; [15]): 4; Tubular casts, Partial AS (Swiss CD-1 female mice; [15]): 3; Tubular dilaion, Partial AS (Swiss CD-1 female mice; [15]): 6; Tubular necrosis, Partial AS (Swiss CD-1 female mice; [15]): 0; antibacterial activity (MIC) (E. coli ATCC 25922 [9]): 16 µg/mL; antibacterial activity (MIC) (K. pneumoniae MB674 [10]): 8 µg/mL |
| Heptanoyl-Dab-Thr-Dab-cyclo(S-S)[Cys-Dab-DAoc-Nle-Dab-Dab-DCys] [compound 3] |  |  |  |  |  |  |  |  |  |  |  |  |  |  | 2 µg/mL | 2 µg/mL | 2 µg/mL | 8 | 2 dead | showed nephrotoxicity | AS, Partial AS (Swiss CD-1 female mice; [15]): 8; Cell vacuolization, Partial AS (Swiss CD-1 female mice; [15]): 3; Tubular dilaion, Partial AS (Swiss CD-1 female mice; [15]): 2; Tubular necrosis, Partial AS (Swiss CD-1 female mice; [15]): 3; antibacterial activity (MIC) (E. coli ATCC 25922 [9]): 16 µg/mL; antibacterial activity (MIC) (K. pneumoniae MB674 [10]): 2 µg/mL |
